Here are results for 4 compounds from the supplement of paper PMC10307832.

Each structure is given as a SMILES string.

The first test has as its system NCI-H358. Put plainly: relative viability (nuclei count vs DMSO), 5 days (fraction); higher = more cells survive. Particulars: first compound 20 µM. An outline of the steps:
(§1)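 Values are medians from duplicate plates. Each reflects relative viability, defined as the nuclei count of treated wells over that of vehicle wells. Lung cancer cell lines in 1536-well plates were pin-tool dosed one day after seeding with one drug alone or with a fixed anchor-drug dose plus five library-drug doses (not always all listed) in √10 steps, then fixed, stained and imaged at 4× after 5 days.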
Take `COCC1(CO)C(=O)C2CCN1CC2` (stereo not given) [PRIMA-1MET] + Cc1nc(Nc2ncc(C(=O)Nc3c(C)cccc3Cl)s2)cc(N2CCN(CCO)CC2)n1 [Dasatinib] (partner 0.075 µM): the relative viability came out at 0.0822.

The subject of a further test is LXF-289. The test is described as above. Particulars: first compound 0.2 µM. In a few lines:
as §1
`COCC1(CO)C(=O)C2CCN1CC2` (stereo not given) [PRIMA-1MET] + CS(=O)(=O)N1CCN(Cc2cc3nc(-c4cccc5[nH]ncc45)nc(N4CCOCC4)c3s2)CC1 [Pictilisib] (partner 1 µM) returned a relative viability of 0.691.

In turn, `COCC1(CO)C(=O)C2CCN1CC2` (stereo not given) [PRIMA-1MET] + CCNC(=O)c1noc(-c2cc(C(C)C)c(O)cc2O)c1-c1ccc(CN2CCOCC2)cc1 [Luminespib] (partner 0.01 µM) yielded a relative viability of 0.878.

For `COCC1(CO)C(=O)C2CCN1CC2` (stereo not given) [PRIMA-1MET] + CC(=O)c1c(C)c2cnc(Nc3ccc(N4CCNCC4)cn3)nc2n(C2CCCC2)c1=O [Palbociclib] (partner 0.5 µM), the relative viability worked out at 0.642.

Compound `COCC1(CO)C(=O)C2CCN1CC2` (stereo not given) [PRIMA-1MET] + Cc1nc(Nc2ncc(C(=O)Nc3c(C)cccc3Cl)s2)cc(N2CCN(CCO)CC2)n1 [Dasatinib] (partner 0.075 µM) had a relative viability of 0.277.

Still in this test, the particulars now being: first compound 0.6325 µM.
Regarding `COCC1(CO)C(=O)C2CCN1CC2` (stereo not given) [PRIMA-1MET] + CS(=O)(=O)N1CCN(Cc2cc3nc(-c4cccc5[nH]ncc45)nc(N4CCOCC4)c3s2)CC1 [Pictilisib] (partner 1 µM), the relative viability was found to be 0.743.

In the case of `COCC1(CO)C(=O)C2CCN1CC2` (stereo not given) [PRIMA-1MET] + CCNC(=O)c1noc(-c2cc(C(C)C)c(O)cc2O)c1-c1ccc(CN2CCOCC2)cc1 [Luminespib] (partner 0.01 µM), the relative viability came out at 0.673.

Turning to `COCC1(CO)C(=O)C2CCN1CC2` (stereo not given) [PRIMA-1MET] + CC(=O)c1c(C)c2cnc(Nc3ccc(N4CCNCC4)cn3)nc2n(C2CCCC2)c1=O [Palbociclib] (partner 0.5 µM), the relative viability stood at 0.662.

`COCC1(CO)C(=O)C2CCN1CC2` (stereo not given) [PRIMA-1MET] + Cc1nc(Nc2ncc(C(=O)Nc3c(C)cccc3Cl)s2)cc(N2CCN(CCO)CC2)n1 [Dasatinib] (partner 0.075 µM) returned a relative viability of 0.179.

The same test, now with this note: first compound 2 µM.
On to `COCC1(CO)C(=O)C2CCN1CC2` (stereo not given) [PRIMA-1MET] + CS(=O)(=O)N1CCN(Cc2cc3nc(-c4cccc5[nH]ncc45)nc(N4CCOCC4)c3s2)CC1 [Pictilisib] (partner 1 µM), for which the relative viability was determined as 0.531.

Turning to `COCC1(CO)C(=O)C2CCN1CC2` (stereo not given) [PRIMA-1MET] + CCNC(=O)c1noc(-c2cc(C(C)C)c(O)cc2O)c1-c1ccc(CN2CCOCC2)cc1 [Luminespib] (partner 0.01 µM), the relative viability was 0.74.

As for `COCC1(CO)C(=O)C2CCN1CC2` (stereo not given) [PRIMA-1MET] + CC(=O)c1c(C)c2cnc(Nc3ccc(N4CCNCC4)cn3)nc2n(C2CCCC2)c1=O [Palbociclib] (partner 0.5 µM), the relative viability came to 0.734.

In turn, `COCC1(CO)C(=O)C2CCN1CC2` (stereo not given) [PRIMA-1MET] + Cc1nc(Nc2ncc(C(=O)Nc3c(C)cccc3Cl)s2)cc(N2CCN(CCO)CC2)n1 [Dasatinib] (partner 0.075 µM) yielded a relative viability of 0.199.

Still in this test, the particulars now being: first compound 6.325 µM.
Consider `COCC1(CO)C(=O)C2CCN1CC2` (stereo not given) [PRIMA-1MET] + CS(=O)(=O)N1CCN(Cc2cc3nc(-c4cccc5[nH]ncc45)nc(N4CCOCC4)c3s2)CC1 [Pictilisib] (partner 1 µM), for which the relative viability worked out at 0.717.

As for `COCC1(CO)C(=O)C2CCN1CC2` (stereo not given) [PRIMA-1MET] + CCNC(=O)c1noc(-c2cc(C(C)C)c(O)cc2O)c1-c1ccc(CN2CCOCC2)cc1 [Luminespib] (partner 0.01 µM), the relative viability came out at 0.712.

As for `COCC1(CO)C(=O)C2CCN1CC2` (stereo not given) [PRIMA-1MET] + CC(=O)c1c(C)c2cnc(Nc3ccc(N4CCNCC4)cn3)nc2n(C2CCCC2)c1=O [Palbociclib] (partner 0.5 µM), the relative viability turned out to be 0.594.

Compound `COCC1(CO)C(=O)C2CCN1CC2` (stereo not given) [PRIMA-1MET] + Cc1nc(Nc2ncc(C(=O)Nc3c(C)cccc3Cl)s2)cc(N2CCN(CCO)CC2)n1 [Dasatinib] (partner 0.075 µM) showed a relative viability of 0.232.

Still in this test, the particulars now being: first compound 20 µM.
On to `COCC1(CO)C(=O)C2CCN1CC2` (stereo not given) [PRIMA-1MET] + CS(=O)(=O)N1CCN(Cc2cc3nc(-c4cccc5[nH]ncc45)nc(N4CCOCC4)c3s2)CC1 [Pictilisib] (partner 1 µM), for which the relative viability was 0.761.

`COCC1(CO)C(=O)C2CCN1CC2` (stereo not given) [PRIMA-1MET] + CCNC(=O)c1noc(-c2cc(C(C)C)c(O)cc2O)c1-c1ccc(CN2CCOCC2)cc1 [Luminespib] (partner 0.01 µM) had a relative viability of 0.624.

As to `COCC1(CO)C(=O)C2CCN1CC2` (stereo not given) [PRIMA-1MET] + CC(=O)c1c(C)c2cnc(Nc3ccc(N4CCNCC4)cn3)nc2n(C2CCCC2)c1=O [Palbociclib] (partner 0.5 µM), the relative viability was 0.602.

For the compound `COCC1(CO)C(=O)C2CCN1CC2` (stereo not given) [PRIMA-1MET] + Cc1nc(Nc2ncc(C(=O)Nc3c(C)cccc3Cl)s2)cc(N2CCN(CCO)CC2)n1 [Dasatinib] (partner 0.075 µM), the relative viability stood at 0.173.

A further test has as its system LOU-NH91. Described as above. Particulars: first compound 0.2 µM. An outline of the steps:
as §1
For the compound `COCC1(CO)C(=O)C2CCN1CC2` (stereo not given) [PRIMA-1MET] + CS(=O)(=O)N1CCN(Cc2cc3nc(-c4cccc5[nH]ncc45)nc(N4CCOCC4)c3s2)CC1 [Pictilisib] (partner 1 µM), the relative viability worked out at 0.573.

Consider `COCC1(CO)C(=O)C2CCN1CC2` (stereo not given) [PRIMA-1MET] + CCNC(=O)c1noc(-c2cc(C(C)C)c(O)cc2O)c1-c1ccc(CN2CCOCC2)cc1 [Luminespib] (partner 0.01 µM), for which the relative viability turned out to be 0.347.

As to `COCC1(CO)C(=O)C2CCN1CC2` (stereo not given) [PRIMA-1MET] + CC(=O)c1c(C)c2cnc(Nc3ccc(N4CCNCC4)cn3)nc2n(C2CCCC2)c1=O [Palbociclib] (partner 0.5 µM), the relative viability turned out to be 0.507.

Turning to `COCC1(CO)C(=O)C2CCN1CC2` (stereo not given) [PRIMA-1MET] + Cc1nc(Nc2ncc(C(=O)Nc3c(C)cccc3Cl)s2)cc(N2CCN(CCO)CC2)n1 [Dasatinib] (partner 0.075 µM), the relative viability amounted to 0.608.
